SMILES strings stand for the structures. Where a name gives a salt, the structure may show the parent alone.

Here are results for nine compounds from patent publication EP0576766A1, “Propanolamine derivatives, their preparation and use” (NOVO NORDISK A/S, priority 1992, dated 1994).

The test system of this test is voltage operated calcium channels (VOC). In words: Inhibition of depolarization-stimulated 45Ca uptake into brain synaptosomes. The test is classed as biochemical. Particulars: inhibition of stimulated uptake of ⁴⁵Ca in depolarized (145 mM KCl) rat cerebral cortex synaptosomes (P₂ fraction), corrected for basal uptake; 15 s incubation; estimated from dose response curves. The text has this: The pharmacological properties of the compounds of the invention can be illustrated by determining their capability to inhibit calcium uptake into brain synaptosomes.
Depolarization of neuronal membranes leads to an opening of socalled "voltage operated calcium channels" (VOC) in the membranes which allows a massive influx of calcium from the extracellular space. A crude synaptosomal preparation (socalled P₂ fraction) contains small vesicles surrounded by neuronal membrane and it is possible in such a preparation to study a depolarization-induced opening of VOC.
A male Wistar rat is decapitated and the cerebral cortex removed and homogenized in 10 ml. of ice-cold 0.32 M sucrose using a glass homogenizer with a teflon pestle. All subsequent steps for isolation of synaptosomes are done at 0-4°C. The homogenate is centrifuged at 1000 x g for 10 min and the resulting supernatant is re-centrifuged at 18000 x g for 20 min. This pellet (P₂) is resuspended in 0.32 M sucrose (5 ml per g of original tissue) with a teflon pestle.
The tubes are pre-incubated for 30 min on ice and then for 6 min at 37°C in a water bath.
The incubation is continued for 15 s.
The amount of radioactivity on the filter disc is determined by liquid scintillation spectrometry.
Test substances are dissolved in 10 ml of 48% ethanol at a concentration of 0.44 mg/ml. Dilution are made in 48% ethanol to give final concentrations of 0.1, 0.3, 1, 3 and 10 µg/ml. Experiments are performed in triplicate. Controls for depolarized and nondepolarized samples are included in the assay and test substances are only tested in depolarized samples.
The test value will be given as IC₅₀ (the concentration (µg/ml) of test substance which inhibit 50% of stimulated uptake of ⁴⁵Ca (uptake in depolarized samples corrected for basal uptake in nondepolarized samples )). The IC₅₀ value is estimated from dose response curves.
Regarding `CN1CCN(CCC(Oc2ccc(C(F)(F)F)cc2)c2ccccc2)CC1` (stereo not drawn) [Compound 5, 1-(3-Phenyl-3-(4-trifluoromethylphenoxy)propyl)-4-methyl piperazine, oxalate], the IC₅₀ is 7.5 µg/mL.

As to `CN(C)CCC(Oc1cccc(C(F)(F)F)c1)c1ccc([N+](=O)[O-])cc1.Cl` (stereo not drawn) [Compound 15, N,N-dimethyl-3-(4-nitrophenyl)-3-(3-trifluoromethylphenoxy)propanamine, hydrochloride], the IC₅₀ was 6.1 µg/mL.

Consider `FC(F)(F)c1ccc(OC2c3ccccc3CC2CN2CCCCC2)cc1` (stereo not drawn) [Compound 20, trans-1-(1-(4-Trifluoromethylphenoxy)indan-2-yl)methyl piperidine, hydrochloride], for which the IC₅₀ was 8.0 µg/mL.

Take `N#Cc1ccc(C(CCN2CCCCC2)Oc2ccc(C(F)(F)F)cc2)cc1.O=C(O)C(=O)O` (stereo not drawn) [Compound 25, 1-(3-(4-Cyanophenyl)-3-(4-trifluoromethylphenoxy)propyl)piperidine, oxalate]: the IC₅₀ is 2.2 µg/mL.

With `FC(F)(F)c1ccc(OC(CCN2CCOCC2)c2ccccc2)cc1.O=C(O)C(=O)O` (stereo not drawn) [Compound 3, 4-(3-Phenyl-3-(4-trifluoromethylphenoxy)propyl)morpholine, oxalate], the IC₅₀ is 17 µg/mL.

As to `CC(=O)Nc1ccc(C(CCN2CCCCC2)Oc2ccc(C(F)(F)F)cc2)cc1.O=C(O)C(=O)O` (stereo not drawn) [Compound 23, 1-(3-(4-Acetamidophenyl)-3-(4-trifluoromethylphenoxy)propyl)piperidine, oxalate], the IC₅₀ was 4.0 µg/mL.

Regarding `CC(=O)Nc1cccc(C(CCN2CCCCC2)Oc2ccc(C(F)(F)F)cc2)c1.O=C(O)C(=O)O` (stereo not drawn) [Compound 24, 1-(3-(3-Acetamidophenyl)-3-(4-trifluoromethylphenoxy)propyl)piperidine, oxalate], the IC₅₀ is 5.3 µg/mL.

For the compound `Cl.c1ccc(C(CCN2CCOCC2)Oc2ccc3c(c2)CCC3)cc1` (stereo not drawn) [Compound 2, 4-(3-(5-Indanyloxy)-3-phenylpropyl)morpholine, hydrochloride], the IC₅₀ was 16 µg/mL.

As to `CN(C)CCC(Oc1ccc2c(c1)CCCC2)c1ccc([N+](=O)[O-])cc1.Cl` (stereo not drawn) [Compound 17, N,N-dimethyl-3-(4-nitrophenyl)-3-(5,6,7,8-tetrahydro-2-naphthoxy)propanamine, hydrochloride], the IC₅₀ is 4.9 µg/mL.
